Molecular target: human factor Xa (FXa) (Homo sapiens, UniProt P00742)
Assay: Determination of the factor Xa inhibition (chromogenic substrate)
Format: biochemical
Conditions: human FXa 0.5 nmol/l, 150 μmol/l Pefachrome FXa, 25° C., pH 8.3, extinction at 405 nm
Procedure: a.1) Determination of the Factor Xa Inhibition:
The enzymatic activity of human factor Xa (FXa) is measured using the conversion of a chromogenic substrate specific for FXa. Factor Xa cleaves p-nitroaniline from the chromogenic substrate. The determinations are carried out in microtitre plates as follows:
The test substances, in various concentrations, are dissolved in DMSO and incubated for 10 minutes at 25° C. with human FXa (0.5 nmol/l dissolved in 50 mmol/l of Tris buffer [C,C,C-tris(hydroxymethyl)aminomethane], 150 mmol/l of NaCl, 0.1% BSA [bovine serum albumin], pH=8.3). Pure DMSO is used as control. The chromogenic substrate (150 μmol/l of Pefachrome® FXa from Pentapharm) is then added. After an incubation time of 20 minutes at 25° C., the extinction at 405 nm is determined.

human factor Xa (FXa), sequence (P00742 235-488 limits assumed): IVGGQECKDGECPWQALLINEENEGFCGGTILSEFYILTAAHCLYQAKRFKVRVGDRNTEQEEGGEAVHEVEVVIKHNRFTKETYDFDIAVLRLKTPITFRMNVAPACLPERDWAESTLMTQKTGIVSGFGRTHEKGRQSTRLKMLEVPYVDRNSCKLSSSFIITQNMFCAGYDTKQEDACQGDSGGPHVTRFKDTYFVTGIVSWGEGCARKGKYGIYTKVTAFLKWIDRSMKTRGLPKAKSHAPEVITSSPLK
human factor Xa (FXa), sequence (P00742 41-179 partner limits assumed): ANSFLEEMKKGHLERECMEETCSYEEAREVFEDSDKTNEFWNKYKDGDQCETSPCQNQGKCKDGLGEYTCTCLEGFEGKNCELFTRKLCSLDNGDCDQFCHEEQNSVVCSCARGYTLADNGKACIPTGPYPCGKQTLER

IC50: 1.1 nM
SMILES: N=C1OCCN1c1cccc(CN2Cc3cccc(NC(=O)c4ccc(Cl)s4)c3C2=O)c1 [Example 5, 5-Chloro-N-{2-[3-(2-imino-1,3-oxazolidin-3-yl)benzyl]-3-oxo-2,3-dihydro-1H-isoindol-4-yl}-thiophene-2-carboxamide methanesulphonate]

From patent US20100010060A1, “Isoindolin-1-One-, Isoindolin-3-One- and Isoindolin-1,3-Dione-Derivatives and Use Thereof” (Bayer Healthcare AG, priority 2006, published 2010)
